In assay [1] the target is T1, chymotrypsin-like proteasome activity (Homo sapiens, UniProt P28074).
T1 construct: chymotrypsin-like proteasome activity in intact THP1 cells after 1 h exposure; endogenous in cells; host or cells: THP1 (wild type)
Briefly: Proteasome-Glo cell-based assay in intact THP1 cells. Conditions: 1 h exposure, mean of 3 experiments ± S.D., read-out: IC50, inhibition of chymotrypsin-like proteasome activity.

Assay [2] relates to THP1/WT. The assay is classed as cell-based, human. Particulars: 72 h. The procedure:
Human monocytic/macrophage THP1 cells (ATTC, Manassas, USA) were cultured in RPMI-1640 medium supplemented with 5% fetal calf serum, 20 mM HEPES, 2 mM glutamine and 100 μg/ml penicillin/ streptomycin at 5% CO2 and 37 °C. Cell cultures were seeded at a density of 3 × 10^5 cells/ml and refreshed twice weekly. […] Some specific experiments also included THP1/BTZ100 cells that were cultured in the absence of BTZ for 6 months (further designated as THP1/BTZ (−100) cells). Mouse thymoma EL4 and human multiple myeloma H929 cells were cultured in RPMI-1640 medium supplemented with 8% fetal calf serum and 100 μg/ml penicillin/streptomycin at 5% CO2 and 37 °C.
(§1) Evaluation of drug sensitivity was carried out as described before. Cells were seeded at an initial density of 1.25 × 10^5 cells/ml in individual wells of a 24-well plate containing up to 50 μl of drug solutions. Inhibition of cell growth was determined after 72 h of incubation at 37 °C by determining the number of viable cells […] using trypan blue exclusion. The drug concentration required to inhibit cell growth by 50% compared to untreated controls was defined as the IC50.

The subject of assay [3] is A549/ATCC. In words: NCI60 tumor cell line screen. The assay is classed as cell-based. Particulars: Homo sapiens, NSC Lung, 48 h drug exposure, read-out: LOG10 GI50 (converted).
The subject of assay [4] is THP1/WT cells. Briefly: Western blot, accumulation of ubiquitinated proteins. It counts as cell-based, human. Conditions: 24 h exposure. The procedure:
Western blot analysis to determine protein levels of (i) β1, β2 and β5 proteasome subunits and (ii) the accumulation of ubiquitinated proteins after treatment with 4A6 was performed essentially as described previously. Cells were harvested in the mid-log phase of growth and washed 3 times with ice-cold buffered saline pH 7.4. Total cell lysates of 5 × 10^6 cells were prepared by resuspension in 500 μl lysis buffer containing: 50 mM Tris-HCl (pH 7.6), 5 mM dithiotreitol, 20 μl PIC (Protease Inhibitor Cocktail; 1 tablet/ml H2O), 20% glycerol and 0.5% NP-40. The suspension was sonicated (MSE sonicator, amplitude 7, for 3 × 5 s with 20 s time intervals at 4 °C) and centrifuged in an Eppendorf micro centrifuge (5 min, 12,000 rpm, 4 °C). Protein content of the supernatant was determined by the Bio-Rad protein assay. 20–30 μg of total cell lysates were fractionated on a 10% polyacrylamide gel containing SDS and transferred onto a PVDF membrane. The membranes were pre-incubated overnight at 4 °C in blocking buffer (5% Bio-Rad Blocker in TBS-T; 10 mM Tris-HCl, pH 8.0, 0.15 M NaCl, 0.1% Tween-20) to prevent non-specific antibody binding. After blocking, the membranes were incubated for 1 h at room temperature with primary antibodies for proteasome subunit β1 (1:1000, PW8140), β2 (1:1000, PW8145) and β5 (1:1000, PW8895) or ubiquitin (1:1000, Santa-Cruz, SC-8017). An antibody to α-tubulin was used (1:1000, Santa Cruz, sc-8035) to check and normalize for any loading differences. After 3 washing steps with TBS-T, the membranes were incubated for 1 h with HRP-labelled donkey-anti-rabbit (1:6000, Amersham, UK) or goat-anti-mouse (1:6000, Dako, Glostrup, Denmark) as secondary antibody. Detection of antibody binding was followed by chemoluminescence using Supersignal (Pierce Biotechnology, Rockford, USA) according to the manufacturers’ instructions. […] The signal intensity was determined densitometrically using Quantity One software (Bio-Rad) and was expressed relative to the intensity of the α-tubulin signal.
In general terms: A western blot detects proteins with antibodies after separation by electrophoresis.

The test system of assay [5] is SK-MEL-5. In words: NCI60 tumor cell line screen. The assay is classed as cell-based. Particulars: Homo sapiens, Melanoma, 48 h drug exposure, read-out: LOG10 GI50 (converted).
Assay [6] concerns THP1/BTZ100. Conditions: relative to THP1/WT; ref Oerlemans et al. [46]; cited from earlier work.
In assay [7] the test system is DU-145. Briefly: NCI60 tumor cell line screen. Conditions: Homo sapiens, Prostate, 48 h drug exposure, read-out: LOG10 GI50 (converted). It counts as cell-based.
For assay [8], the system named is SK-OV-3. Briefly: NCI60 tumor cell line screen. Particulars: Homo sapiens, Ovarian, 48 h drug exposure, read-out: LOG10 GI50 (converted). The assay is classed as cell-based.
The subject of assay [9] is COLO 205. In words: NCI60 tumor cell line screen. Conditions: Homo sapiens, Colon, 48 h drug exposure, read-out: LOG10 GI50 (converted). It counts as cell-based.
For assay [10], the system named is proteasome β-subunits. In words: Proteasome affinity labelling and recovery in H929 cells. Conditions: 5 μM MG132 (1 h) or 20 nM bortezomib (1 h). The assay is classed as cell-based, human.
For assay [11], the system named is THP1/BTZ50. Particulars: relative to THP1/WT; ref Oerlemans et al. [46]; cited from earlier work.
Assay [12] relates to CCRF-CEM. In words: NCI60 tumor cell line screen. The assay is classed as cell-based. Conditions: Homo sapiens, Leukemia, 48 h drug exposure, read-out: LOG10 GI50.
Assay [13] relates to HT29. In words: NCI60 tumor cell line screen. Conditions: Homo sapiens, HT-29, Colon, 48 h drug exposure, read-out: LOG10 GI50 (converted). It counts as cell-based.
In assay [14] the test system is THP1/WT. Also noted: method as in Oerlemans et al. [46]. Particulars: ref Oerlemans et al. [46], cited from earlier work.
Assay [15] deals with THP1/BTZ200. Particulars: relative to THP1/WT; ref Oerlemans et al. [46]; cited from earlier work.
In assay [16] the test system is NCI-H226. Briefly: NCI60 tumor cell line screen. It counts as cell-based. Conditions: Homo sapiens, NSC Lung, 48 h drug exposure, read-out: LOG10 GI50 (converted).
Assay [17] deals with β5 subunit of the proteasome. More on the design: method as in PMID 16286248, PMID 16455650. Conditions: ref [15], [21]; read-out: IC50, proteasome inhibition; cited from earlier work.
Assay [18] concerns SNB-19. Briefly: NCI60 tumor cell line screen. The assay is classed as cell-based. Conditions: Homo sapiens, CNS, 48 h drug exposure, read-out: LOG10 GI50 (converted).
Assay [19] concerns HS 578T. Briefly: NCI60 tumor cell line screen. Particulars: Homo sapiens, Breast, 48 h drug exposure, read-out: LOG10 GI50 (converted). It counts as cell-based.
Assay [20] concerns THP1 cells. Briefly: Growth inhibition with or without Ruthenium Red. The assay is classed as cell-based, human. Conditions: 72 h, with or without 25 μM Ruthenium Red. The method, then: as §1
Assay [21] relates to SNB-75. In words: NCI60 tumor cell line screen. Particulars: Homo sapiens, CNS, 48 h drug exposure, read-out: LOG10 GI50 (converted). It counts as cell-based.
For assay [22], the system named is K-562. Briefly: NCI60 tumor cell line screen. The assay is classed as cell-based. Particulars: Homo sapiens, K562, Leukemia, 48 h drug exposure, read-out: LOG10 GI50 (converted).
Assay [23] deals with NCI60 tumor cell line panel. In words: NCI60 panel COMPARE analysis. It counts as cell-based, human. Conditions: mean log10GI50, 2 days of drug exposure.
Assay [24] concerns THP1/BTZ200 cells. Briefly: Apoptosis assay (Annexin-V/7-AAD flow cytometry). Particulars: 24 h, 4A6 over 0–25 μM. The assay is classed as cell-based, human. The procedure: (§2) Induction of apoptosis was analyzed by flow cytometry using APOPTEST™-FITC A700 (VPS Diagnostics, Hoeven, the Netherlands) according to the instructions of the manufacturer. In short, induction of apoptosis was determined after 24 h’ drug exposure. One million cells were harvested and washed 3 times with ice-cold PBS. The cell pellet was incubated for 30 min with 7-Amino-actinomycin D (7-AAD) on ice followed by incubation with Annexin-V according to the instructions of the manufacturer. Annexin-V (early apoptosis) and 7-AAD (late apoptosis) staining was measured by flow cytometry (Beckton & Dickinson, FACScalibur) and analysed using FCSexpress V3 software (Denovo software, Thornhill, Canada).

In assay [25] the test system is THP1/WT cells. Briefly: Apoptosis assay (Annexin-V/7-AAD flow cytometry). The assay is classed as cell-based, human. Conditions: 24 h exposure. The procedure:
as §2
Background: Flow cytometry measures light scatter and fluorescence of single cells or particles in a stream.

A short description of assay [26]: Cell growth inhibitory potential of cleavage product (data not shown). It counts as cell-based.
Assay [27] concerns proteasome. In words: Proteasome inhibitory effect of cleavage product (data not shown).

Read-outs that look alike come from different tables or passages of the source. Where a SMILES comes first, the peptide text is derived from it. The star is where a group is joined. Cbz = O=C(OCc1ccccc1)*; NHBn = c1ccc(CN*)cc1; OBn = c1ccc(CO*)cc1; Bn = c1ccc(C*)cc1; OtBu = CC(C)(C)O*

With “4A6-dimer: dimer form of 4A6, contains the same amino acid sequence as 4A6 (THTXEG; The dimer linkage, and any protecti)”, in [1], the IC50 amounted to 490 ± 120 nM.
In the case of `CC(=O)N[C@H](C(=O)N[C@@H](CCC(=O)OC(C)(C)C)C(=O)N[C@@H](CCC(=O)OCc1ccccc1)C(=O)N[C@@H](CC(=O)OC(C)(C)C)C(=O)N[C@@H](CCC(=O)OC(C)(C)C)C(=O)NCC(=O)NCc1ccccc1)[C@@H](C)OCc1ccccc1` [4E11, Ac-Thr(OBzl)-Glu(OtBu)-Glu(OBzl)-Asp(OtBu)-Glu(OtBu)-Gly-Bza] (Ac-T(Bn)E(OtBu)E(OBn)D(OtBu)E(OtBu)G-NHBn), inhibition in assay [2] was half-maximal at 3900 ± 800 nM (IC50).
Turning to `CC(C)C[C@H](NC(=O)[C@H](Cc1ccccc1)NC(=O)c1cnccn1)B(O)O` [Bortezomib, Pyrazylcarbonyl-Phe-Leu-boronate], the GI50 in assay [3] was 2.44 nM; in [5] it was 0.11 nM; in assay [7], 0.891 nM; in assay [8], 32.9 nM; in assay [9], 0.363 nM; in assay [12], 0.1 nM. The GI50 in [13] is 0.389 nM; in assay [16], 0.105 nM; in assay [18] it was 0.724 nM; in assay [19], 0.422 nM; in assay [21], 1.95 nM; in assay [22], 0.422 nM. The “accumulation of ubiquitinated proteins” value in assay [4] is given as “marked accumulation of ubiquitinated proteins”. In assay [6], the “[Resistance Factor] THP1/BTZ100” value was 79. Also, the “inhibition of β-subunit activity probing” value in assay [10] is “predominantly inhibited β5-subunit probing”. The “[Resistance Factor] THP1/BTZ50” value in assay [11] is 45. The IC50 was 0.0033 ± 0.0006 µM in assay [14] (growth inhibition) and 3 to 5 nM in assay [17]. In [14] (reference value in square brackets), the “[Resistance Factor] THP1/WT” value was 1. Further, the “[Resistance Factor] THP1/BTZ200” value in assay [15] is reported as 129. In addition, the “effect of Ruthenium Red on growth inhibitory activity (protection)” value in assay [20] was “marked abrogation”. For the same compound, in [23], the “orders of magnitude more potent than 4A6” value is 2–3 orders of magnitude.
As to `CC(C)C[C@@H](C=O)NC(=O)[C@H](CC(C)C)NC(=O)[C@H](CC(C)C)NC(=O)OCc1ccccc1` [MG132, Z-Leu-Leu-Leucinal] (Cbz-Leu-Leu-Leu-aldehyde), the “inhibition of β-subunit activity probing” value in [10] is “blocked activity probing of all β-subunits”.
Take `COc1cc([C@@H]2c3cc4c(cc3[C@@H](O[C@@H]3O[C@@H]5CO[C@@H](C)O[C@H]5[C@H](O)[C@H]3O)[C@H]3COC(=O)[C@H]23)OCO4)cc(OC)c1O` [etoposide, reference compound]: the induction of apoptosis result in assay [24] and in [25] was “equally effective in inducing apoptosis” each time.
In the case of Ac-Thr(tBu)-His(Bzl)-Thr(Bzl)-Nle-OH, the “cell growth inhibitory potential” value in assay [26] is reported as “did not show any proteasome inhibitory effect or cell growth inhibitory potential”. Also, the proteasome inhibitory effect entry in assay [27] is “did not show any proteasome inhibitory effect”.

What is called IC50 is the concentration needed to halve the response being measured. The GI50 is the concentration giving 50% growth inhibition.

Source of the values: publication PMC6153520, “Proteasome inhibition and mechanism of resistance to a synthetic, library-based hexapeptide” (Investigational New Drugs, 2018).
